Test results taken from US12291529B2, “Heterocyclic GLP-1 agonists” (Gasherbrum Bio, Inc., priority 2023, dated 2025).

Target: GLP-1 Receptor (Homo sapiens, UniProt P43220)
Assay: GLP-1R agonist cAMP stimulation assay (HEK293/GLP1R/CRE-LUC cells, Cisbio cAMP dynamic 2 kit)
Format: cell-based
Conditions: Table 3, HEK293/GLP1R/CRE-LUC cells, 30 min
Method: Activation of GLP-1 receptor is known to stimulate cyclic AMP (cAMP) production in cells which indicates primary coupling to the G as subunit of the G protein heterotrimeric complex.
To optimize functional activity directed toward G as coupling, a HEK293/CRE-Luc cell line developed by HDB stably expressing the GLP-1 Receptor was used. 200× concentration of compound working solutions were prepared (Agilent Technologies Bravo) with ½ log serial dilution in 384-well Echo LDV plate (Labcyte, CatOLP-0200). 50 nL/well 200× concentration of compound working solutions were moved to 384-well white low volume plate (Greiner, Cat4784075) using Labcyte ECH0550.1×10^5 cells/mL HEK293/GLP1R/CRE-LUC (HD Biosciences) cell suspensions prepared with assay buffer (DPBS containing 0.5 mM IBMX (Sigma, Cat15879) and 0.10 BSA (GENVIEW, Cat4FA016-100g)), 10 uL cell suspensions were added to each well of previous generated assay plate which already contains 50 n^1 compound at 200 xconcentration using ThermioFisher Multidrop Combi (1000 cells/well). Seal the plate and incubate at 37 with […] for 30 m.
After incubation the cAMP assay signal was generated using cAMP dynamic 2 Kit (Cisbio). 5 μL cAMP-d2 working solution was added to each well, followed with 5 L Anti-cAMP antibody-cryptate working solution added to each well using ThermoFisher Multidrop Combi. Incubate at room temperature for 1 hour protected from light. Read the fluorescence at 665 and 615 nm with Reader PerkinElmer EnVision. % oActivity=100%×(mean RLU of test sample−mean RLU of vehicle control)/(mean RLU of MAX control−mean RLU of vehicle control)

GLP-1 Receptor, sequence (P43220 24-463, species assumed): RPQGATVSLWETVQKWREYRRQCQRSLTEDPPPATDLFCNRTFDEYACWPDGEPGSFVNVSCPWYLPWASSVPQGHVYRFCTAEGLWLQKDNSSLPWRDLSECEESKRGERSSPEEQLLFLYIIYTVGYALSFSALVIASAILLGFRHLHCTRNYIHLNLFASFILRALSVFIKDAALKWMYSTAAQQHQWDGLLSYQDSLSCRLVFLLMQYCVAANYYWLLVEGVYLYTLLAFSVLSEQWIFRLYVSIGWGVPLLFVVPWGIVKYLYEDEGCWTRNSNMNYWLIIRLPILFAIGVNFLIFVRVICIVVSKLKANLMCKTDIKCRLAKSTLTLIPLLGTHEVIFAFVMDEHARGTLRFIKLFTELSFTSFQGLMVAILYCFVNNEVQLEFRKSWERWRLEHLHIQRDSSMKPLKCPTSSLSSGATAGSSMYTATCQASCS

SMILES	EC50 [nM]
Cc1cc(-n2nc3c(c2-n2ccn(-c4ccc5c(c4)CCS5(=N)=O)c2=O)[C@H](C)N(C(=O)c2cc4cc(C5CCOCC5)ccc4n2[C@@]2(c4noc(=O)[nH]4)C[C@@H]2C)CC3)cc(C)c1F (stereo partly drawn) [Compound 101, 3-[(1S,2S)-1-(2-{[(4S)-3-[3-(1-azanylidene-l-oxo-2,3-dihydro-1λ^6-benzo[b]thiophen-5-yl)-2-oxoimidazol-1-yl]-2-(4-fluoro-3,5-dimethylphenyl)-4-methyl-4,5,6,7-tetrahydropyrazolo[4,3-c]pyridin-5-yl]carbonyl}-5-(3,4,5,6-tetrahydro-2H-pyran-4-yl)indol-1-yl)-2-methylcyclopropyl]-4H,5H-1,2,4-oxadiazol-5-one]	0.067
CN=S1(=O)CCC(Oc2ccc(-n3ccn(-c4c5c(nn4-c4cc(C)c(F)c(C)c4)CCN(C(=O)c4cc6cc([C@H]7CCOC(C)(C)C7)ccc6n4[C@@]4(c6noc(=O)[nH]6)C[C@@H]4C)[C@H]5C)c3=O)cc2C2CC2)CC1 (some centres unmarked) [Compound 237]	0.07
Cc1cc(-n2nc3c(c2-n2ccn(-c4ccc(S(C)(=N)=O)cc4)c2=O)[C@H](C)N(C(=O)c2cc4cc(C5CCOCC5)ccc4n2[C@@]2(c4noc(=O)[nH]4)C[C@@H]2C)CC3)cc(C)c1F (single isomer, unassigned) [Compound 115]	0.049
Cc1cc(-n2nc3c(c2-n2ccn(-c4ccc(S(=N)(=O)C5CCC5)cc4F)c2=O)[C@H](C)N(C(=O)c2cc4cc(C5CCOCC5)ccc4n2[C@@]2(c4noc(=O)[nH]4)C[C@@H]2C)CC3)cc(C)c1F (single isomer, unassigned) [Compound 169]	0.07
Cc1nnc(C2(n3c(C(=O)N4CCc5nn(-c6cc(C)c(F)c(C)c6)c(-n6ccn(-c7ccc(S8(=O)=NCCC8)cc7)c6=O)c5[C@@H]4C)cc4cc(C5CCOCC5)ccc43)CC2)o1 (single isomer, unassigned) [Compound 155]	0.99
CCS(=O)(=NC)c1ccc(-n2ccn(-c3c4c(nn3-c3cc(C)c(F)c(C)c3)CCN(C(=O)c3cc5cc(C6CCOCC6)ccc5n3CC3CCCO3)[C@H]4C)c2=O)cc1 (some centres unmarked) [Compound 163]	20
Cc1cc(-n2nc3c(c2-n2ccn(-c4ccc(S(C)(=N)=O)cc4)c2=O)[C@H](C)N(C(=O)c2cn4cc(C5CCOCC5)ccc4c2C2(c4noc(=O)[nH]4)CC2)CC3)cc(C)c1F (some centres unmarked) [Compound 109]	0.27
C[C@H]1c2c(nn(-c3ccc(F)c(C4CC4)c3)c2-n2ccn(-c3ccc(S(C)(=N)=O)cc3)c2=O)CCN1C(=O)c1cc2cc(C3CCOCC3)ccc2n1[C@@]1(c2noc(=O)[nH]2)C[C@@H]1C (some centres unmarked) [Compound 118]	0.04
CN=S(=O)(c1ccc(-n2ccn(-c3c4c(nn3-c3cc(C)c(F)c(C)c3)CCN(C(=O)c3cc5cc([C@H]6CCOC(C)(C)C6)ccc5n3[C@@]3(c5noc(=O)[nH]5)C[C@@H]3C)[C@H]4C)c2=O)c(F)c1C(C)C)C1CC1 (single isomer, unassigned) [Compound 220]	0.134
CCS(=N)(=O)c1ccc(-n2ccn(-c3c4c(nn3-c3cc(C)c(F)c(C)c3)CCN(C(=O)c3sc5cc(C6CCOCC6)ccc5c3C3(c5noc(=O)[nH]5)CC3)[C@H]4C)c2=O)cc1 (single isomer, unassigned) [Compound 132]	0.98
CN=S(=O)(c1ccc(-n2ccn(-c3c4c(nn3-c3cc(C)c(F)c(C)c3)CCN(C(=O)c3cc5cc(C6CCOCC6)ccc5n3[C@@]3(c5noc(=O)[nH]5)C[C@@H]3C)[C@H]4C)c2=O)c(F)c1)C1CC1 (single isomer, unassigned) [Compound 222]	0.084
Cc1cc(-n2nc3c(c2-n2ccn(-c4ccc5c(c4)C=CS(C)(=O)=N5)c2=O)[C@H](C)N(C(=O)c2cc4cc([C@H]5CCOC(C)(C)C5)ccc4n2[C@@]2(c4noc(=O)[nH]4)C[C@@H]2C)CC3)cc(C)c1F (single isomer, unassigned) [Compound 230]	0.048
CN=S(=O)(c1cc(F)c(-n2ccn(-c3c4c(nn3-c3cc(C)c(F)c(C)c3)CCN(C(=O)c3cc5cc([C@H]6CCOC(C)(C)C6)ccc5n3[C@@]3(c5noc(=O)[nH]5)C[C@@H]3C)[C@H]4C)c2=O)cc1C)C1CC1 (single isomer, unassigned) [Compound 194]	0.046
CN=S(=O)(c1ccc(-n2ccn(-c3c4c(nn3-c3cc(C)c(F)c(C)c3)CCN(C(=O)c3cc5cc([C@H]6CCOC(C)(C)C6)ccc5n3[C@@]3(c5noc(=O)[nH]5)C[C@@H]3C)[C@H]4C)c2=O)c(F)c1Cl)C1CC1 (single isomer, unassigned) [Compound 215]	0.074
Cc1cc(-n2nc3c(c2-n2ccn(-c4ccc(CS(C)(=N)=O)cc4F)c2=O)[C@H](C)N(C(=O)c2cc4cc(C5CCOCC5)ccc4n2[C@@]2(c4noc(=O)[nH]4)C[C@@H]2C)CC3)cc(C)c1F (single isomer, unassigned) [Compound 174]	0.067
CCS(=N)(=O)c1ccc(-n2ccn(-c3c4c(nn3-c3cc(C)c(F)c(C)c3)CCN(C(=O)c3cc5cc(C6CCOCC6)ccc5n3[C@@]3(c5noc(=O)[nH]5)C[C@@H]3C)[C@H]4C)c2=O)cc1 (single isomer, unassigned) [Compound 116]	0.049
Cc1cc(-n2nc3c(c2-n2ccn(-c4ccc(S(=O)(=NC5CC5)C5CC5)cc4F)c2=O)[C@H](C)N(C(=O)c2cc4cc([C@H]5CCOC(C)(C)C5)ccc4n2[C@@]2(c4noc(=O)[nH]4)C[C@@H]2C)CC3)cc(C)c1F (single isomer, unassigned) [Compound 209]	0.22
CCN=S(=O)(c1ccc(-n2ccn(-c3c4c(nn3-c3cc(C)c(F)c(C)c3)CCN(C(=O)c3cc5cc([C@H]6CCOC(C)(C)C6)ccc5n3[C@@]3(c5noc(=O)[nH]5)C[C@@H]3C)[C@H]4C)c2=O)c(F)c1)C1CC1 (single isomer, unassigned) [Compound 208]	0.11
CN=S1(=O)CCC(Oc2ccc(-n3ccn(-c4c5c(nn4-c4cc(C)c(F)c(C)c4)CCN(C(=O)c4cc6cc([C@H]7CCOC(C)(C)C7)ccc6n4[C@@]4(c6noc(=O)[nH]6)C[C@@H]4C)[C@H]5C)c3=O)cc2C2CC2)CC1 (single isomer, unassigned) [Compound 236]	0.053

The next compounds have a lower EC50 than those just listed; values first:

EC50 [nM]	SMILES
0.023	Cc1cc(-n2nc3c(c2-n2ccn(-c4ccc5c(c4F)CCN=S5(=O)C4CC4)c2=O)[C@H](C)N(C(=O)c2cc4cc([C@H]5CCOC(C)(C)C5)ccc4n2[C@@]2(c4noc(=O)[nH]4)C[C@@H]2C)CC3)cc(C)c1F (single isomer, unassigned) [Compound 198]
0.028	CN=S1(=O)CCC(Oc2ccc(-n3ccn(-c4c5c(nn4-c4cc(C)c(F)c(C)c4)CCN(C(=O)c4cc6cc(C7CCOCC7)ccc6n4[C@@]4(c6noc(=O)[nH]6)C[C@@H]4C)[C@H]5C)c3=O)c(F)c2C)CC1 (single isomer, unassigned) [Compound 233]
0.028	Cc1cc(-n2nc3c(c2-n2ccn(-c4ccc5c(c4)CS(C)(=O)=N5)c2=O)[C@H](C)N(C(=O)c2cc4cc(C5CCOCC5)ccc4n2[C@@]2(c4noc(=O)[nH]4)C[C@@H]2C)CC3)cc(C)c1F (some centres unmarked) [Compound 225]
0.01	Cc1cc(-n2nc3c(c2-n2ccn(-c4ccc5c(c4F)CN=S5(C)=O)c2=O)[C@H](C)N(C(=O)c2cc4cc([C@H]5CCOC(C)(C)C5)ccc4n2[C@@]2(c4noc(=O)[nH]4)C[C@@H]2C)CC3)cc(C)c1F (single isomer, unassigned) [Compound 187]
0.01	Cc1cc(-n2nc3c(c2-n2ccn(-c4cc5c(cc4F)S(C)(=O)=NC5)c2=O)[C@H](C)N(C(=O)c2cc4cc([C@H]5CCOC(C)(C)C5)ccc4n2[C@@]2(c4noc(=O)[nH]4)C[C@@H]2C)CC3)cc(C)c1F (single isomer, unassigned) [Compound 200]
0.018	Cc1cc(-n2nc3c(c2-n2ccn(-c4ccc5c(c4Cl)CN=S5(C)=O)c2=O)[C@H](C)N(C(=O)c2cc4cc([C@H]5CCOC(C)(C)C5)ccc4n2[C@@]2(c4noc(=O)[nH]4)C[C@@H]2C)CC3)cc(C)c1F (single isomer, unassigned) [Compound 202]
0.012	CC[C@H]1C[C@]1(c1noc(=O)[nH]1)n1c(C(=O)N2CCc3nn(-c4cc(C)c(F)c(C)c4)c(-n4ccn(-c5ccc(S(=N)(=O)CC)cc5F)c4=O)c3[C@@H]2C)cc2cc(C3CCOCC3)ccc21 (single isomer, unassigned) [Compound 173]
0.001	CCS(=N)(=O)c1ccc(-n2ccn(-c3c4c(nn3-c3cc(C)c(F)c(C)c3)CCN(C(=O)c3cc5cc(C6CCOCC6)ccc5n3[C@@]3(c5noc(=O)[nH]5)C[C@@H]3C)[C@H]4C)c2=O)c(F)c1 (single isomer, unassigned) [Compound 138]
0.037	CN=S1(=O)CCC(Oc2ccc(-n3ccn(-c4c5c(nn4-c4cc(C)c(F)c(C)c4)CCN(C(=O)c4cc6cc(C7CCOCC7)ccc6n4[C@@]4(c6noc(=O)[nH]6)C[C@@H]4C)[C@H]5C)c3=O)c(F)c2C)CC1 (single isomer, unassigned) [Compound 232]
0.0047	Cc1cc(-n2nc3c(c2-n2ccn(-c4ccc5c(c4F)CCN=S5(C)=O)c2=O)[C@H](C)N(C(=O)c2cc4cc([C@H]5CCOC(C)(C)C5)ccc4n2[C@@]2(c4noc(=O)[nH]4)C[C@@H]2C)CC3)cc(C)c1F (single isomer, unassigned) [Compound 186]
